pEC50, pIC50: −log10 of the molar value. “Also recorded” adds a separate entry of the source.
Columns and labels:
[1] = test system: p53DsRed reporter in PG3/9 melanoma cells (A375 clone); assay: p53DsRed reporter activation assay (in vitro p53 activity assay); assay type: cell-based; conditions: for pEC50: Homo sapiens, A-375, PG3/9 melanoma cells, 24 hours, read-out: effective concentration (EC50), p53DsRed reporter activation; for fraction of p53-reporter activated cells at high concentrations: apparently due to excessive cell death
Description: The ability of the compounds to activate p53 was analyzed using a cell-based assay. To establish the assay, a stable cell transfectant expressing a p53-responsive reporter was generated. A375 melanoma cell line (ATCC CRL-1619) was transfected with a vector containing the p53 consensus element 13x repeat (13XRE) (Kern et al., 1991) cloned to a DsRed Express reporter vector (Clontech) to yield the vector “PG13DsRed”, hereafter termed as “p53DsRed”. […] The cell clone PG3/9 was used in the screen.
The assay was carried out in a 96-well format and all plate handlings were done using liquid handling robots (Thermo CRS, Thermo Electron Corporation; Biomek FX, Beckman Coulter and Hamilton STAR, Hamilton Microlab). Cells were plated at 10,000 cells/100 μL/well onto 96-well ViewPlates (Packard) and incubated overnight at +37° C. and 5% CO2. Small molecule compound chemical libraries were purchased and diluted to dimethylsulfoxide (DMSO) at 10 mM concentration. The compounds were pin-transferred to plain media at approximately 3 μM concentration either as single (one compound/one well) or pools of compounds (two compounds/one well). The growth media was removed and replaced with media with the test compounds followed by incubation of the cells for 24 h at +37° C. and 5% CO2. […] Following the incubation, the cells were washed with phosphate buffered saline and fixed with paraformaldehyde (PFA, 4%, 25 min, RT) and cell nuclei were stained with Hoechst 33342 (Molecular Probes, 4 μg/mL, 2 min, RT).
The fluorescence signals of Hoechst 33342 and DsRed reporter expression in the fixed cells were analyzed using ArrayScan 4.5 high-content screening platform (Cellomics) including an inverted microscope (Zeiss 200M) with 10× objective (Zeiss), Omega XF93 filter (Omega), ORCA-AG CCD camera (Hamamatsu). The algorithm used for image acquisition and analysis was Target Activation Bioapplication (Cellomics), which was set to analyse the total number of cells and the percentage of p53 reporter positive cells termed as “responders”. For each well, four images on both fluorescence channels were acquired corresponding to approximately 1700 cells in mock-treated wells. The mean number of responders was calculated for each well, and compounds causing reporter activation for more than two times the mean number of responders in the mock treated cells in each plate were regarded as hits.
In the secondary screen the hits were collected and tested over 100 nM to 10 μM concentration range. The compound treatment time, cell fixations and stainings as well as fluorescence signal detection was as described above. Compounds providing consistent p53DsRed reporter activation at low μM concentration range were selected for further testing. The effective concentration 50 (EC50) was calculated using the following formula: […]

[2] = test system: phosphorylation of histone H2AX on serine-139 (γH2AX) in A375 melanoma cells; assay: Phospho-H2AX immunofluorescence (genotoxic stress); assay type: cell-based; conditions: A375, 5 μM, 24 hours
Description: (§1) Immunofluorescence staining was carried out to determine the correct localisation of p53 and to detect H2AX phosphorylation indicative of genotoxic stress. Cells were treated with the compounds and fixed in paraformaldehyde (3.5 PFA, 25 min RT). The coverslips were permeabilised in 0.5% NP-40 and blocked in 3% bovine serum albumin (BSA). p53 was detected by staining with FL-393 antibody (Santa Cruz, 1:50, 1 h at +37° C.) followed by Alexa-594 conjugated secondary antibody (Molecular Probes, 1:200, 1 h at +37° C.), phospho-H2AX was detected by staining with anti-H2AX (P-Ser-139) antibody (Upstate, 1:200 1 h at +37° C.) followed by Alexa-488 conjugated secondary antibody (Molecular Probes, 1:200, 1 h at +37° C.). Nuclei were stained with Hoechst 33342. Images were captured using the Zeiss Axioplan fluorescence microscope equipped with Zeiss AxioCam HRc CCD-camera and AxioVision 4.5 software using 40×, NA=0,75 objective, Chroma 31000, Chroma41001 and 41004 filters for Hoechst, Alexa488 and Alexa594, respectively.

[3] = In vivo toxicity tests; conditions: mice; for acute or chronic toxicities based on histological HE-stainings: i.p., 5, 10 and 20 mg/kg three times a week for three weeks; for toxicity by weight curves, macroscopical pathologies, hematoxylin-eosin staining of tissues: i.p., 5, 10 and 20 mg/kg, 9 doses/3 weeks
Description: Acute and chronic toxicity of the compounds was tested on FVB/N mice. Female mice of 4-6 weeks old were purchased from Harlan and 2 animals were used per compound dose. The mice were injected intraperitoneally with the compounds three times a week for three weeks in 30 microL DMSO. Two animals received vehicle only (=30 μL DMSO). The animals were weighed prior to injections and were monitored for any signs of toxicity, distress or unusual behaviour. The animals were sacrificed three days after receiving the final injection. The liver, kidney, spleen, small intestine and thymus were excised and fixed in 4% paraformaldehyde overnight, and processed into paraffin-blocks. Haematoxylin-eosin staining (HE staining) of the tissues was performed using standard immunohistological techniques.

[4] = test system: BC3-luc pleural effusion lymphoma cells; assay: Orthotopic xenograft model of pleural effusion lymphoma; assay type: in vivo; conditions: NOD-SCID mice, 20 mg/kg i.p. seven times
Description: An orthotopic xenograft model of pleural effusion lymphoma was used to assess the anti-tumor activities of compounds 15, 21 and 22. Female NOD-SCID mice (Charles River, France) were injected intraperitoneally with pleural effusion lymphoma cells carrying a stable NF-kappaB regulated luciferase reporter (BC3-luc cells) (Keller et al., 2006). The tumors were allowed to establish for three days after which the mice were imaged and divided into treatment (groups 4-5 mice per group). The compound treatments were initiated on day four. The mice received 2 mg/kg (cmp21) or 20 mg/kg (cmp15 and 22) every other/third day for seven times via i.p. injections, control mice received DMSO only. The mice were imaged prior to each compound injection. Imaging was carried out with Xenogen In Vivo Imaging System (IVIS), D-luciferin (Synchem OHG, Germany) was injected intraperitoneally (100 mg/kg) 10-15 min prior to each imaging. Quantitation was done using Igor Pro Carbon analysis software, bioluminescence was quantitated and plotted as total flux within a given ROI.

[5] = test system: A375 melanoma (WTp53); assay: WST-1 cell viability assay, A375; assay type: cell-based; conditions: for pIC50: A375 melanoma (WTp53), three days, WST-1
Description: (§2) The effect of the compounds selected using the screening assay on the viability of several tumor cell lines as well as diploid cell lines and cell strains was studied. Cells were plated in 96-well plates at a density of 10,000 cells/100 μL/well and were incubated overnight. The following day compound dilutions ranging from 0 to 40 μM were applied to the cells in triplicate and the cells were incubated with the compounds for three days. Cell viability was assayed using the WST-1 cell proliferation reagent (Roche Diagnostics, Germany) The WST-1 reagent was diluted 1:10 in cell culture media and 100 μL of the reagent dilution was applied onto cells followed by 1 hour incubation at +37° C. The specific absorbance was measured at 450 nm and a reference absorbance was measured at 690 nm. […] Analysis for Protein Levels

[6] = test system: RPMI7951 (MUTp53); assay: WST-1 cell viability assay, RPMI-7951; assay type: cell-based; conditions: three days
Description: as §2

[7] = test system: WS-1 diploid fibroblast; assay: WST-1 cell viability assay, WS-1; assay type: cell-based, human; conditions: three days
Description: as §2

[8] = test system: normal human primary melanocytes; assay: WST-1 cell viability assay, melanocytes; assay type: cell-based; conditions: Melanocyte, three days
Description: as §2

[9] = test system: Human intestinal endothelial cells; assay: WST-1 cell viability assay, intestinal endothelial cells; assay type: cell-based; conditions: three days
Description: as §2

[10] = test system: p53, Mdm2 and p21 levels in A375 melanoma cells; assay: Immunoblotting and immunofluorescence for p53, Mdm2 and p21 levels; assay type: cell-based; conditions: A375, 24 hours, 5 μM
Description: To study the effect of compounds on endogenous protein levels, A375 melanoma cells were treated with the compounds for 24 hours. Cellular lysates were prepared in lysis buffer containing 0.5% NP-40 with proteinase inhibitors. Protein (20-30 μg) was separated by sodium dodecyl sulphate-polyacrylamide gel electrophoresis (SDS-PAGE) followed by transfer to PVDF membrane (Immobilon™-P, Millipore, Bedford, Mass., USA). Immunoblotting was carried out using DO-1 antibody for p53, 2A10 for Mdm2 and anti-p21 (Becton Dickinson) to detect p21, followed by secondary antibodies conjugated with horseradish peroxidase (p53) or biotin followed by streptavidin-horseradish peroxidase (Mdm2 and p21) after which proteins were detected with enhanced chemiluminescence (ECL, Amersham Life Sciences). Equal protein loading was verified using GAPDH (p9.B.88, Europa Bioproducts Ltd, UK) as a protein loading control.
as §1

[11] = test system: A375 melanoma cells; assay: Flow cytometry cell cycle and apoptosis analysis; assay type: cell-based; conditions: A375, three days at 10 μM or six days at 5 μM
Description: Cell cycle analysis and cellular apoptosis was assayed with flow cytometry (LSR, Beckton Dickinson). Cells were treated with the compounds and both floating and adherent cells were harvested and fixed in 70% ethanol at −20° C. followed by staining of DNA with propidium iodide. A total of 10,000 counts were collected and data was analysed using ModFit LT 3.1 software. Cells present in sub-G1 population were regarded as apoptotic.

[12] = test system: B-cell lymphoma (Kaposi's sarcoma herpes virus-infected pleural effusion lymphoma) cells; conditions: cited from earlier work

| Compound | pEC50 [1] | acute or chronic toxicities based on histological HE-stainings [3] | toxicity by weight curves, macroscopical pathologies, hematoxylin-eosin staining of tissues [3] | pIC50 ([5]; Homo sapiens, A-375, 72 h) | pIC50 ([6]; Homo sapiens, RPMI-7951, 72 h) | pIC50 ([7]; Homo sapiens, 72 h) | pIC50 ([8]; Homo sapiens, 72 h) | pIC50 ([9]; Endothelial cell, 72 h) | cell cycle / apoptosis phenotype [11] | also measured |
| --- | --- | --- | --- | --- | --- | --- | --- | --- | --- | --- |
| Cc1sc2nc3c4ccccc4c(NCCCN(C)C)nn3c(=O)c2c1C [Compound 15] | 5.27 | No acute or chronic toxicities were observed | did not show any apparent toxicity | – | – | – | – | – | – | cellular γH2AX response (genotoxic stress) [2]: induces genotoxic stress; also recorded: induced a cellular γH2AX response; inhibition of tumor cell growth (bioluminescence) [4]: noticeable inhibition of the tumor cell growth |
| Cc1cc(C)c2c(N)c3cccc(C)c3nc2n1 [Compound 23, 2,4,9-trimethylbenzo[b]-1,8-naphthyridin-5-amine] | 5.68 | – | – | – | – | – | – | – | – | fraction of p53-reporter activated cells at high concentrations [1]: decrease in the fraction of p53-reporter activated cells |
| COc1cccc2c(N)c3c(cnn3C)nc12 [Compound 1, 5-methoxy-1-methylH-pyrazolo[4,3-b]quinolin-9-amine] | 5.48 | – | – | 5.37 | 4.83 | 4.98 | 4.52 | 4.88 | G2-phase arrest and apoptosis | fraction of p53-reporter activated cells at high concentrations [1]: decrease in the fraction of p53-reporter activated cells; fold difference IC50 (A375)/ IC50 (WS-1) ([5]; A375 melanoma versus WS-1 normal cells): 2.4 fold; Mdm2 induction [10]: most prominent |
| COc1ccc(C2=N[C@@H](c3ccc(Cl)cc3)[C@@H](c3ccc(Cl)cc3)N2C(=O)N2CCNC(=O)C2)c(OC(C)C)c1 [Nutlin, nutlin-3a, reference compound] | – | – | – | – | – | – | – | – | – | pIC50 [5]: 5.14; pIC50 [6]: < 4.40; pIC50 [7]: 4.69; pIC50 [8]: < 4.40; pIC50 [9]: 4.97; B-cell lymphoma cell killing ([12]; in vitro and in vivo mouse models): highly effective agent inducing B-cell lymphoma; adverse side-effects ([12]; mouse): does not cause any adverse side-effects |
| CCOc1ccc(C2=CC(c3cc(OC)c(OC)c(OC)c3)n3ncnc3N2)cc1 (stereo not drawn) [Compound 20, 5-(4-ethoxyphenyl)-7-(3,4,5-trimethoxyphenyl)-4,7-dihydro-[1,2,4]triazolo[1,5-α]pyrimidine] | 6.22 | – | – | – | – | – | – | – | – | – |
| CCOC(=O)c1cnc2c(C)cc(C)cc2c1NCCCN(C)C [Compound 9, ethyl 4-(3-dimethylaminopropylamino)-6,8-dimethyl-quinoline-3-carboxylate] | 5.34 | No acute or chronic toxicities were observed | did not show any apparent toxicity | 5.21 | 4.75 | 4.80 | < 4.40 | 4.71 | G1-phase arrest | Mdm2 induction [10]: most prominent |
| CN(C)CCCNc1nn2c(=O)c3ccccc3nc2c2ccccc12 [Compound 7] | 5.18 | No acute or chronic toxicities were observed | did not show any apparent toxicity | 5.52 | 4.77 | 4.74 | 4.49 | 4.71 | imminent G2-phase arrest and increased the apoptotic fraction of the cells | cellular γH2AX response (genotoxic stress) [2]: induces genotoxic stress; also recorded: induced a cellular γH2AX response |

Reference: US10214491B2, “Activators and therapeutic applications thereof” (THE JOHNS HOPKINS UNIVERSITY, priority 2007, dated 2019)
